Key:
[1] = target: T1, CYP1A (Homo sapiens, UniProt P04798+P05177); assay: Inhibition of CYP1A in human liver microsomes by fluorescence assay; assay type: ADME, Microsome
T1 sequence (P04798 whole entry): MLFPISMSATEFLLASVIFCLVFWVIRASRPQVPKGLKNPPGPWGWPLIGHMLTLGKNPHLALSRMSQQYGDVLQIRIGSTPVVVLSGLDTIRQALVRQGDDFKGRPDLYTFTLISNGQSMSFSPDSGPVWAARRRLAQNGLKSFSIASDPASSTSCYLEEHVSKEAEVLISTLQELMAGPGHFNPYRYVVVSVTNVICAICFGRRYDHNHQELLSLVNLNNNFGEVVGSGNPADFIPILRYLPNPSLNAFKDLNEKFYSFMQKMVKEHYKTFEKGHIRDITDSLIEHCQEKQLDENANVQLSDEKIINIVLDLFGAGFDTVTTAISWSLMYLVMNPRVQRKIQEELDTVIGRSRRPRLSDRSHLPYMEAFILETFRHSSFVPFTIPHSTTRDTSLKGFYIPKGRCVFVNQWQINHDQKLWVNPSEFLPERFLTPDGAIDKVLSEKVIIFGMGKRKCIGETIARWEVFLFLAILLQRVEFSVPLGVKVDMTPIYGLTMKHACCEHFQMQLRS
T1 sequence (P05177 whole entry): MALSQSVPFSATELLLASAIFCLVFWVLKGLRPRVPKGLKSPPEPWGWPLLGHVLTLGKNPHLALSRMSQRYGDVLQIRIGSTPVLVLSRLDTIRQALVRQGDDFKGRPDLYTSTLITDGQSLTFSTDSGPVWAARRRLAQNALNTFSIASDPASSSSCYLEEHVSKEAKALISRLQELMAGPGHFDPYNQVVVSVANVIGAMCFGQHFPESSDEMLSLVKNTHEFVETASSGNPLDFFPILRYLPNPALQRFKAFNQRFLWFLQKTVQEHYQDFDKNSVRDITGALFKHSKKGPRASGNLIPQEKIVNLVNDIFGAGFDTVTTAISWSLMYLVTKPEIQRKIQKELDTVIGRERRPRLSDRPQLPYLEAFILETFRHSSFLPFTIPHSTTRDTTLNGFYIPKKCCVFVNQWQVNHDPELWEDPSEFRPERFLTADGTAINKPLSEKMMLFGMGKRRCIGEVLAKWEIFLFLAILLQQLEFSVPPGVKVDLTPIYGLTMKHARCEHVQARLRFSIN

[2] = target: T2, Protein deacetylase HDAC6 (Homo sapiens, UniProt Q9UBN7)
T2 sequence (Q9UBN7 whole entry): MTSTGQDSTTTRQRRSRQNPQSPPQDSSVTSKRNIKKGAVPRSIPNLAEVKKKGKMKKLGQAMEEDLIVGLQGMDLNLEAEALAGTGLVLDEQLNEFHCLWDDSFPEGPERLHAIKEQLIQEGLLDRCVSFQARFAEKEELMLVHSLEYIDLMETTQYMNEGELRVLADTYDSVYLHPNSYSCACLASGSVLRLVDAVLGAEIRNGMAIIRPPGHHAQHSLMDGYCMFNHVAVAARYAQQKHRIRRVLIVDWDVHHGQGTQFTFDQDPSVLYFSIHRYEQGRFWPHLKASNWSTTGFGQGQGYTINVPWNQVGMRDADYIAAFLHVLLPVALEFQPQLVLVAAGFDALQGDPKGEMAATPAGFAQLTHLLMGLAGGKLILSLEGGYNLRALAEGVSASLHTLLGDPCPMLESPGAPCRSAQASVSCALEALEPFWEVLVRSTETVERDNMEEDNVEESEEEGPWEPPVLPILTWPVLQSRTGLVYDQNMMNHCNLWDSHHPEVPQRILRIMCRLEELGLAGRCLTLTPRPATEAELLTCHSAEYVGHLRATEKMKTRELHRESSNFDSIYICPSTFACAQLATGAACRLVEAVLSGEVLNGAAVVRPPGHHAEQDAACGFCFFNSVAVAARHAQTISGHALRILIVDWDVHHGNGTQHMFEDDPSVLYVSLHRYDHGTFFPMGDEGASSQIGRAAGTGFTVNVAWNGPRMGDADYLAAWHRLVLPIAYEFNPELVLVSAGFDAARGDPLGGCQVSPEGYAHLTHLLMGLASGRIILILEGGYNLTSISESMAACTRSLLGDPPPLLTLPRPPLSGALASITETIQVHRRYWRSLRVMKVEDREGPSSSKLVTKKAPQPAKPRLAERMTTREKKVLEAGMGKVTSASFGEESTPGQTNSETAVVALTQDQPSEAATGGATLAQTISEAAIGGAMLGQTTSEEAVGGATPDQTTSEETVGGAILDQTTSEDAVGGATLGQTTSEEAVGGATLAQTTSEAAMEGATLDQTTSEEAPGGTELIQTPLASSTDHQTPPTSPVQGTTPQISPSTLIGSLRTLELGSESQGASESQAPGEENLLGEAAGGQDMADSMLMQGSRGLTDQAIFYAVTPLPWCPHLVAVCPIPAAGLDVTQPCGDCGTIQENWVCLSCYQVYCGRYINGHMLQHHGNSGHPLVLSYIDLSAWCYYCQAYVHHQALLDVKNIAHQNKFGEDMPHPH
Description: Competitive inhibition of HDAC6 using KI-104 as substrate by fluorescence assay

[3] = target: Histone deacetylase 1 (Homo sapiens, UniProt Q13547)
Sequence of Histone deacetylase 1 (Q13547 whole entry): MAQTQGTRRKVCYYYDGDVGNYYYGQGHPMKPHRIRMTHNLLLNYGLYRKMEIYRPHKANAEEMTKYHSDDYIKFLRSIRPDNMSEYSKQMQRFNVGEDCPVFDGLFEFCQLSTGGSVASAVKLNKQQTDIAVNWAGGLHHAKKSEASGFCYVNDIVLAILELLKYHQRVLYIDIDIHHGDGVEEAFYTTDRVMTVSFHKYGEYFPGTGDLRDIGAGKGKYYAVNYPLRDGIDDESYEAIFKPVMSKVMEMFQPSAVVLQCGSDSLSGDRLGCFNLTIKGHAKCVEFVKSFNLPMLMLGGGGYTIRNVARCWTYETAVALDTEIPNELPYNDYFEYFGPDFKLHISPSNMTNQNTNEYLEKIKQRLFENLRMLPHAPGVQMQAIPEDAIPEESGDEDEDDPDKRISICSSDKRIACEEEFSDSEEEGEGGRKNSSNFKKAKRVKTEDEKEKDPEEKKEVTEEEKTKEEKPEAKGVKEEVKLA
Description: Competitive inhibition of HDAC1 using KI-104 as substrate by fluorescence assay

[4] = target: T3, Histone deacetylase 11 (Homo sapiens, UniProt Q96DB2)
T3 sequence (Q96DB2 whole entry): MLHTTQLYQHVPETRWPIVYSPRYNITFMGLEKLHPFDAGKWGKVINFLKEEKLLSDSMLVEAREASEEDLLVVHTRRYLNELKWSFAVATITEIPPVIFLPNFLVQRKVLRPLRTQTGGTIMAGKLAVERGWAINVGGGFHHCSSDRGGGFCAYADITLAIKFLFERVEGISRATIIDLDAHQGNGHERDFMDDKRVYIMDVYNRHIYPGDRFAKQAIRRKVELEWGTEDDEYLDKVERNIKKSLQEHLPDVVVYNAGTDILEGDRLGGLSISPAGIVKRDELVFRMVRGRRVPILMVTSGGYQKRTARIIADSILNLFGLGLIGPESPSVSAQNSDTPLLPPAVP
Description: Competitive inhibition of HDAC11 using KI-104 as substrate by fluorescence assay

[5] = target: Histone deacetylase 2 (Homo sapiens, UniProt Q92769)
Sequence of Histone deacetylase 2 (Q92769 whole entry): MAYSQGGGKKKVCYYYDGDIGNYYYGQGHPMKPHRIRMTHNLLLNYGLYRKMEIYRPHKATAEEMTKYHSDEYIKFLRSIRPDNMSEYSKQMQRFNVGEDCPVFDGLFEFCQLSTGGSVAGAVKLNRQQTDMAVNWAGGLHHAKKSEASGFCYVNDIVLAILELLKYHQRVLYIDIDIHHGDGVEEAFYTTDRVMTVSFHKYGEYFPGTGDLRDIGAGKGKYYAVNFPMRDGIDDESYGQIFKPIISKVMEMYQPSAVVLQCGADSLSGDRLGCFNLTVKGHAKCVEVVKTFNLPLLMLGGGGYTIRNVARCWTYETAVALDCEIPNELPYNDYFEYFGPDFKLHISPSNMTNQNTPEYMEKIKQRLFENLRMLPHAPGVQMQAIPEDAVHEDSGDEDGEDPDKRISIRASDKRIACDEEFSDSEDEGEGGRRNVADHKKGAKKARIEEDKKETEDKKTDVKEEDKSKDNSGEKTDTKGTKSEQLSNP
Description: Competitive inhibition of HDAC2 using KI-104 as substrate by fluorescence assay

[6] = target: Cytochrome P450 2C19 (Homo sapiens, UniProt P33261); assay: Inhibition of CYP2C19 in human liver microsomes by fluorescence assay; assay type: ADME, Microsome
Sequence of Cytochrome P450 2C19 (P33261 whole entry): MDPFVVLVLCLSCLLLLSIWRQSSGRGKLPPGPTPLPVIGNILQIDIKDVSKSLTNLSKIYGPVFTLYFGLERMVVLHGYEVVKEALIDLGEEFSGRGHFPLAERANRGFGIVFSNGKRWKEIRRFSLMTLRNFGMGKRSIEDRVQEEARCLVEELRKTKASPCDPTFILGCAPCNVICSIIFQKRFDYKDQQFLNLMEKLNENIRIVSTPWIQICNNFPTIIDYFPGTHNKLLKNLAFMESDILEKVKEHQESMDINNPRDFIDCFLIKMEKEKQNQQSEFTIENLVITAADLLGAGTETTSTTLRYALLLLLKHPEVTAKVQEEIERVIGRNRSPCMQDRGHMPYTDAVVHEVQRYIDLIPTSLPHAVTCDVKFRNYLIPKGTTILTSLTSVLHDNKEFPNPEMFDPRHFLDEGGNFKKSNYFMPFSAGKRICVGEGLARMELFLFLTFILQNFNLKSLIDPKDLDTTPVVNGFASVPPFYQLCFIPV

[7] = target: Cytochrome P450 2D6 (Homo sapiens, UniProt P10635); assay: Inhibition of CYP2D6 in human liver microsomes by fluorescence assay; assay type: ADME, Microsome
Sequence of Cytochrome P450 2D6 (P10635 whole entry): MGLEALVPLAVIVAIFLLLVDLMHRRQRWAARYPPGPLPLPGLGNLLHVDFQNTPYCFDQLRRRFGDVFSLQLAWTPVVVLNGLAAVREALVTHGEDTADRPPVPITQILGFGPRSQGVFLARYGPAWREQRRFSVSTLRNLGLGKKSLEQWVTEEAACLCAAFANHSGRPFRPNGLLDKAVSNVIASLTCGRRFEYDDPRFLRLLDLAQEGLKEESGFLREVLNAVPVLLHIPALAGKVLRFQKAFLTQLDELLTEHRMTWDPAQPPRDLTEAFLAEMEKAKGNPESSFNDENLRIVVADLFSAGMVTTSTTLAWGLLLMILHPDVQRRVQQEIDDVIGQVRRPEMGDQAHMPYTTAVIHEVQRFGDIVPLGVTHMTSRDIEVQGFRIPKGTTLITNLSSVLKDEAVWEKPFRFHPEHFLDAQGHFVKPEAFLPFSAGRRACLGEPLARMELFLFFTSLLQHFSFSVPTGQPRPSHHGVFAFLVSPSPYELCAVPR

[8] = target: Histone deacetylase 4 (Homo sapiens, UniProt P56524)
Sequence of Histone deacetylase 4 (P56524 whole entry): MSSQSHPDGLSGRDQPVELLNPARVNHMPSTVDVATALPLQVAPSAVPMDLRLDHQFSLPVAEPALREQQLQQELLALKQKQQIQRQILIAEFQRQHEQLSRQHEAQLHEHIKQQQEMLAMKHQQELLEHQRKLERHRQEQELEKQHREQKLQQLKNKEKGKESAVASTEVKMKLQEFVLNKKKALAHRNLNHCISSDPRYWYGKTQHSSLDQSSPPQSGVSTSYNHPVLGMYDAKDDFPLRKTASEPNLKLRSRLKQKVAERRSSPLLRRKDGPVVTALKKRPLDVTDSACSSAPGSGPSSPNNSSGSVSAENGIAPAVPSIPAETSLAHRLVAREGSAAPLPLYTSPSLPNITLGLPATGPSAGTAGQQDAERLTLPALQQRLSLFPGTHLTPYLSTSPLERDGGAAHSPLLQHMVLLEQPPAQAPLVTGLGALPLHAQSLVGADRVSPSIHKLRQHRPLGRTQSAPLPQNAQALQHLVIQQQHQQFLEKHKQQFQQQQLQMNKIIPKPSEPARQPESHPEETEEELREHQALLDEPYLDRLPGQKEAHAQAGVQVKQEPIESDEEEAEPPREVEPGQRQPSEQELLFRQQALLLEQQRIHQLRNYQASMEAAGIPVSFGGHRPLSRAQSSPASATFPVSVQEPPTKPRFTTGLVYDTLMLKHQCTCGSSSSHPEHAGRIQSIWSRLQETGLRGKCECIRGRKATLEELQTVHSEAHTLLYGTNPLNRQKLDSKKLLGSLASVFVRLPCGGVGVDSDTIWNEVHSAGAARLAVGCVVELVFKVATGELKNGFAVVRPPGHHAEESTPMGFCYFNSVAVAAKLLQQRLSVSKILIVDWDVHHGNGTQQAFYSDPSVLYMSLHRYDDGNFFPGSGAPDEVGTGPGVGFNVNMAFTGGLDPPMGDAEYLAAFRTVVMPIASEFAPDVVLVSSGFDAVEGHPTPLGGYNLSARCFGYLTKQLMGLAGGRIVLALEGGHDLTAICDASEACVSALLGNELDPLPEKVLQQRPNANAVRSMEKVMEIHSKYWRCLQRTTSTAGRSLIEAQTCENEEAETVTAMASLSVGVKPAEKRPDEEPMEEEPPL
Description: Competitive inhibition of HDAC4 using KI-104 as substrate by fluorescence assay

[9] = target: Histone deacetylase 5 (Homo sapiens, UniProt Q9UQL6)
Sequence of Histone deacetylase 5 (Q9UQL6 whole entry): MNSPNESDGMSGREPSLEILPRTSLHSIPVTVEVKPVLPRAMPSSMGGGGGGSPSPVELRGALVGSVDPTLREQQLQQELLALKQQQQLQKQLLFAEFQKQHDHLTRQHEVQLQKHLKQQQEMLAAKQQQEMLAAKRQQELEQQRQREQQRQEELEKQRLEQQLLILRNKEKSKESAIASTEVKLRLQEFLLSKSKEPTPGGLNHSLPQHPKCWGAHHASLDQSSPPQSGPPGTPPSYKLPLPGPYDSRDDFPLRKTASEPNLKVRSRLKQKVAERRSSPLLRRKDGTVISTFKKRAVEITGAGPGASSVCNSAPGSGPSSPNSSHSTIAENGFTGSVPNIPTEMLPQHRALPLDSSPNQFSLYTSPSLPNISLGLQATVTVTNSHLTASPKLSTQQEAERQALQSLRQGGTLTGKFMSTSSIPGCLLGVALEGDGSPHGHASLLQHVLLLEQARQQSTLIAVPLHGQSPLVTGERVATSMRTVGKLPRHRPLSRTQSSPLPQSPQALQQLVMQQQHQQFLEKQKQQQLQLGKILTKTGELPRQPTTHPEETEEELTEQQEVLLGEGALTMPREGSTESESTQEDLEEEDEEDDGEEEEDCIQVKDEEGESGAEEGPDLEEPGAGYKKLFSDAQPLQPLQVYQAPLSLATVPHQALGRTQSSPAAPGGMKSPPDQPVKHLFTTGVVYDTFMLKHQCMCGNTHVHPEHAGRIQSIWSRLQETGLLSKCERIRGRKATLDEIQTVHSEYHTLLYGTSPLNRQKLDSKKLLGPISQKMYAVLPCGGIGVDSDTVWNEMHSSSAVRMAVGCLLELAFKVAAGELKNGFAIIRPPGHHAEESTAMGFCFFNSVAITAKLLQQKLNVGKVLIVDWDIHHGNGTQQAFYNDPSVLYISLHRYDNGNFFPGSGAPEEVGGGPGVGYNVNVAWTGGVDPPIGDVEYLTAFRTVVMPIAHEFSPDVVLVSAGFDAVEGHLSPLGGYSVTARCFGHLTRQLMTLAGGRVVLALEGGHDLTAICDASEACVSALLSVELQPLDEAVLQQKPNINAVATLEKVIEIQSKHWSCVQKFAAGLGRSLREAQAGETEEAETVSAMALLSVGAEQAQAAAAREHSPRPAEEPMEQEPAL
Description: Competitive inhibition of HDAC5 using KI-104 as substrate by fluorescence assay

[10] = test system: COLO 205; assay: Antiproliferative activity against human COLO205 cells after 96 hrs by celltiter 96 assay; assay type: functional, cell-based; conditions: COLO 205, 96 h
[11] = target: Cytochrome P450 2C9 (Homo sapiens, UniProt P11712); assay: Inhibition of CYP2C9 in human liver microsomes by fluorescence assay; assay type: ADME, Microsome
Sequence of Cytochrome P450 2C9 (P11712 whole entry): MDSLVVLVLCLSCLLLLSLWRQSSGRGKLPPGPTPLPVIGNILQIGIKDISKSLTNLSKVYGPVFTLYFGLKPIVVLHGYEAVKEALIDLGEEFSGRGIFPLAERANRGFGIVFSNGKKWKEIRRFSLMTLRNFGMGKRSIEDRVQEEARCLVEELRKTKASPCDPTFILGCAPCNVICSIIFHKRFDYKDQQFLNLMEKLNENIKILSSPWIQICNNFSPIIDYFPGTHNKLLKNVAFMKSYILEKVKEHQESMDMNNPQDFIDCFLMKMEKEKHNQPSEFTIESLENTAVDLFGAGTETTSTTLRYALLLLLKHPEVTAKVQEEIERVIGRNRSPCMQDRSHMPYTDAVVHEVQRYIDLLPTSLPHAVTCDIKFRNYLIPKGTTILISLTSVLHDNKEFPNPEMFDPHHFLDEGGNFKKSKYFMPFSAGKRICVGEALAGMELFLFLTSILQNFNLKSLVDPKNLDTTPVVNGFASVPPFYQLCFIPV

SMILES	IC50 [1] [nM]	Ki [2] [nM]	Ki [3] [nM]	Ki [4] [nM]	Ki [5] [nM]	IC50 [6] [nM]	IC50 [7] [nM]	Ki [8] [nM]	Ki [9] [nM]	IC50 [10] [nM]	IC50 [11] [nM]
CCCCCCc1nc2cc(/C=C/C(=O)NO)ccc2n1CCN(C)C	> 25000	300	19	11	21	10300	> 25000	5.3	9.2	330	10400
CCCCc1nc2cc(/C=C/C(=O)NO)ccc2n1CCN(CC)CC.Cl.Cl	> 25000	247	[…]	24	27	5780	> 25000	16	21	560	> 25000
CN(C)CC(C)(C)Cn1c(CC(C)(C)C)nc2cc(/C=C/C(=O)NO)ccc21	> 25000	94	24	14	26	8100	13900	7.9	11	570	> 25000

— ChEMBL document CHEMBL1828590 (J Med Chem, 2011)
